# In patent US20220062233A1 (The Board of Trustees of the Leland Stanford Junior …, priority 2018, published 2022):
# Legend:
# [1] = biological target: T1, interaction between Supt4h and NGN (subunit of Supt5h) (Homo sapiens, UniProt O00267+P63272); test: Split Gaussia luciferase complementation assay (M2-8 Luciferase); assay type: cell-based; conditions: M2-8 cells
# T1 construct: expressed in transfected cells
# Summary of the method: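 HEK293-derived M2-8 cells inducibly express Supt4h-Gluc1 and NGN-Gluc2 fragments (stabilizing mutations) on RheoSwitch ligand addition; ligand plus compound added 24 h after plating and left 24 h. Cells frozen, lysed with 10 μg/ml native coelenterazine, 1 h room temperature dark; complemented luciferase luminescence read.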
# M2-8 cells = test: M2-8 Cell viability Assay; assay type: cell-based; conditions: at the concentration of 1000 nM
# mutant HTT [2] = test: Mutant HTT assay in lymphoblastoid cells (LBC), Western blot; assay type: cell-based, human; conditions: read-out: LBC IC20 (nM) mHTT, 3 days compound treatment
# Procedure: (§1) B. Mutant and Wild-Type HTT Assay in Lymphoblastoid Cells (LBC)
# (§2) a. Cell Culturing and Compound Treatment
# (§3) Lymphoblastoid cells derived from a Huntington's disease patient with 250 CAG repeats in the mutant HTT allele (GM14044 from Coriell Institute) were cultured in RPMI 1640 (Corning Cellgro, 10-040-CV) containing fetal bovine serum (Atlanta Biologicals, S11150). 4×10^5 cells were seeded on a 24-well plate and incubated with testing compound for 3 days. The cell suspension was then transferred to a 1.5 ml Eppendorf tube. Cells were collected by centrifugation and washed once with PBS. After all liquid was removed, the cell pellet was placed at −80° C. for at least 10 minutes. Lysis buffer [30 mM Tris-HCl (pH 8.0), 5 mM NaCl, 0.1% Triton X-100] with the proteinase inhibitor cocktail (P8340 from Sigma-Aldrich) was then added to the cells. Following centrifugation (14 k rpm for 15 min at 4° C.), the supernatant was collected. The protein concentrations were determined by BCA assay (Pierce, ThermoFisher).
# (§4) Equal amounts of protein were loaded onto 4-12% gel (Invitrogen, WG1403A). After electrophoresis, the gels were transferred to nitrocellulose membranes by wet transfer at 72V for 3 hrs. […] The protein levels of mutant HTT, wild-type HTT, TBP, and tubulin were determined by immunoblotting with anti-polyQ specific antibody (clone MW1), anti-Huntingtin antibody (Abcam, ab45169), anti-TBP antibody (Sigma, T1827) and anti-alpha tubulin antibody (Sigma, T9026). Blots were imaged on a Li-Cor Odyssey infrared imager. The band intensities were determined by Li-Cor Odyssey software.
# wild-type HTT = test: Wild-type HTT assay in lymphoblastoid cells (LBC), Western blot; assay type: cell-based, human; conditions: 3 days compound treatment, read-out: LBC IC20 (nM) wtHTT
# Procedure: as §1, §2, §3, §4
# [3] = test system: Lymphoblastoid cells (GM14044); test: LBC cell viability (Cell Titer-Glo); assay type: cell-based, human; conditions: at the concentration of IC20, 3-day compound treatment
# Procedure: Cell viability was determined by Cell Titer-Glo reagent (Promega, PRG9243). After 3-day compound treatment, 15 μl of cell suspension was taken out from plate and incubated with 10 μl of CTG reagent. The values of reaction mixture were detected by Tecan.
# mutant HTT [4] = test: Mutant HTT assay in induced pluripotent stem cells (iPSC); assay type: cell-based, human; conditions: HD patient iPSCs, one day incubation, read-out: iPSC IC20 (nM) mHTT
# Procedure: C. Mutant HTT Assay in Induced Pluripotent Stem Cells (iPSC) a. Cell Culturing and Compound Treatment
# Huntington's disease patient iPSCs (ND50036 from NINDS) were detached into single cells by Accutase (25058CI from Corning), counted and plated on a 24-well plate coated with Matrigel (354277 from Corning) at density of 7,000 cells/well. After 48 hrs, compounds were added to the cell culture medium mTeSR1 (85850 from StemCell Technologies) and the cells were incubated for one day. The medium was then removed, and the cells were washed with PBS. After all liquid was removed, the plate was placed at −80° C. overnight. Lysis buffer [30 mM Tris-HCl (pH 8.0), 5 mM NaCl, 0.1% Triton X-100] with the complete proteinase inhibitor cocktail (5892791001 from Sigma-Aldrich) was then added to the cells. Cell samples were lysed on an orbital plate shaker at 4° C. at 700 rpm for 30 min. The supernatants from spinning (14 k rpm for 10 min) were collected. The protein concentrations were determined by BCA assay (23225 from Pierce, ThermoFisher). […]
# b. Detection of Mutant HTT Protein
# Equal amounts of protein lysate collected from each sample were added to a 96-well plate that had been coated with a human HTT specific monoclonal antibody. After washing away any unbound substances, a biotinylated anti-human mutant HTT specific detection antibody was added. Streptavidin-horseradish peroxidase was subsequently added, followed by TMB Substrate Solution, which yielded a blue product that turns yellow when the Stop Solution was added. The intensity of the color measured was in proportion to the amount of mutant HTT bound in the initial step. The mutant HTT values are then interpolated from a standard curve.
# [5] = test system: Huntington's disease patient iPSCs (ND50036); test: iPSC viability at IC20; assay type: cell-based, human; conditions: at the concentration of IC20
# mouse hepatocytes = test: In vitro metabolic stability in mouse hepatocytes; assay type: in vitro ADME
# Procedure: A. In Vitro Metabolic Stability in Hepatocyte
# A compound's metabolic stability was assessed using mouse hepatocytes incubated with pre-defined concentration of test articles over several incubation period. The extent of metabolism was calculated from the disappearance of the test compound measured by liquid chromatography mass spectrometry (LC-MS), compared to that of 0-min control. After incubation, quench solutions including internal standards were added and analyzed by LC/MS. The elimination rate constant and intrinsic clearance (CLhepatocyte) values were calculated by linear regression of the compound elimination over the duration of incubation, normalized to the cell number in the given volume of incubation medium.
smiles,measurement,setting,value
"C[C@H](N[C@@H]1CCCc2c1[nH]c1ccc(Br)cc21)c1ccccc1 (single isomer, unassigned) [Compound 14]",IC50,[1],≤ 100 nM
same,M2-8 Cell viability,M2-8 cells,+ (cell viability is greater than 50% at the concentration of 1000 nM)
same,IC20,mutant HTT [2],< 100 nM
same,IC20,wild-type HTT,> 1000 nM
same,LBC viability at IC20,[3],* (cell viability is greater than 60% at the concentration of IC20)
same,IC20,mutant HTT [4]; class symbols,< 100 nM
same,iPSC viability at IC20,[5],+ (cell viability is greater than 75% at the concentration of IC20)
"COCC(N[C@@H]1CCCc2c1[nH]c1ccc(Br)cc21)c1ccc(C(C)(C)O)cc1 (single isomer, unassigned) [Compound 52]",IC50,[1],≤ 100 nM
same,M2-8 Cell viability,M2-8 cells,+ (cell viability is greater than 50% at the concentration of 1000 nM)
same,IC20,mutant HTT [2],< 100 nM
same,IC20,wild-type HTT,> 500 nM
same,LBC viability at IC20,[3],* (cell viability is greater than 60% at the concentration of IC20)
same,IC20,mutant HTT [4]; class symbols,< 100 nM
same,iPSC viability at IC20,[5],+ (cell viability is greater than 75% at the concentration of IC20)
"OCc1ccc(CN[C@@H]2CCCc3c2[nH]c2ccc(Br)cc32)s1 [Compound 36, (R)-(5-(((6-bromo-2,3,4,9-tetrahydro-1H-carbazol-1-yl)amino)methyl)thiophen-2-yl)methanol]",IC50,[1],≤ 100 nM
same,M2-8 Cell viability,M2-8 cells,+ (cell viability is greater than 50% at the concentration of 1000 nM)
same,IC20,mutant HTT [2],101 to 300 nM
same,IC20,wild-type HTT,> 1000 nM
same,LBC viability at IC20,[3],* (cell viability is greater than 60% at the concentration of IC20)
same,IC20,mutant HTT [4]; class symbols,< 100 nM
same,iPSC viability at IC20,[5],+ (cell viability is greater than 75% at the concentration of IC20)
same,Mouse HepStability (CLhepatocyte),mouse hepatocytes,C (CLhepatocyte >30 μl/min/10^6cells)
OB1OCc2cc(CN[C@@H]3CCCc4c3[nH]c3ccc(Br)cc43)ccc21 [Compound 37],IC50,[1],101 to 300 nM
same,M2-8 Cell viability,M2-8 cells,+ (cell viability is greater than 50% at the concentration of 1000 nM)
same,IC20,mutant HTT [2],101 to 300 nM
same,IC20,wild-type HTT,> 1000 nM
same,LBC viability at IC20,[3],* (cell viability is greater than 60% at the concentration of IC20)
same,IC20,mutant HTT [4]; numeric bounds,> 100 nM
same,Mouse HepStability (CLhepatocyte),mouse hepatocytes,B (CLhepatocyte 10-30 μl/min/10^6cells)
"CC1(C)OB(c2ccc(CN[C@@H]3CCCc4c3[nH]c3ccc(Br)cc43)cc2)OC1(C)C [Compound 43, (R)-6-bromo-N-(4-(4,4,5,5-tetramethyl-1,3,2-dioxaborolan-2-yl)benzyl)-2,3,4,9-tetrahydro-1H-carbazol-1-amine]",IC50,[1],≤ 100 nM
same,M2-8 Cell viability,M2-8 cells,+ (cell viability is greater than 50% at the concentration of 1000 nM)
same,IC20,mutant HTT [2],101 to 300 nM
same,IC20,wild-type HTT,> 1000 nM
same,LBC viability at IC20,[3],* (cell viability is greater than 60% at the concentration of IC20)
same,IC20,mutant HTT [4]; class symbols,< 100 nM
same,iPSC viability at IC20,[5],+ (cell viability is greater than 75% at the concentration of IC20)
C=Cc1ccc2[nH]c3c(c2c1)CCC[C@H]3NCc1ccccc1 [Compound 45],IC50,[1],≤ 100 nM
same,M2-8 Cell viability,M2-8 cells,+ (cell viability is greater than 50% at the concentration of 1000 nM)
same,IC20,mutant HTT [2],< 100 nM
same,IC20,wild-type HTT,> 1000 nM
same,LBC viability at IC20,[3],* (cell viability is greater than 60% at the concentration of IC20)
same,IC20,mutant HTT [4]; class symbols,< 100 nM
same,iPSC viability at IC20,[5],+ (cell viability is greater than 75% at the concentration of IC20)
"COC(C)(C)c1ccc(CN[C@@H]2CCCc3c2[nH]c2ccc(Br)cc32)cc1 [Compound 48, (R)-6-bromo-N-(4-(2-methoxypropan-2-yl)benzyl)-2,3,4,9-tetrahydro-1H-carbazol-1-amine]",IC50,[1],≤ 100 nM
same,M2-8 Cell viability,M2-8 cells,+ (cell viability is greater than 50% at the concentration of 1000 nM)
same,IC20,mutant HTT [2],< 100 nM
same,IC20,wild-type HTT,> 500 nM
same,LBC viability at IC20,[3],* (cell viability is greater than 60% at the concentration of IC20)
same,IC20,mutant HTT [4]; class symbols,< 100 nM
same,iPSC viability at IC20,[5],+ (cell viability is greater than 75% at the concentration of IC20)
"OC1(c2ccc(CN[C@@H]3CCCc4c3[nH]c3ccc(Br)cc43)cc2)CC1 [Compound 50, (R)-1-(4-(((6-bromo-2,3,4,9-tetrahydro-1H-carbazol-1-yl)amino)methyl)phenyl) cyclopropan-1-ol]",IC50,[1],≤ 100 nM
same,M2-8 Cell viability,M2-8 cells,+ (cell viability is greater than 50% at the concentration of 1000 nM)
same,IC20,mutant HTT [2],< 100 nM
same,IC20,wild-type HTT,> 500 nM
same,LBC viability at IC20,[3],* (cell viability is greater than 60% at the concentration of IC20)
same,IC20,mutant HTT [4]; class symbols,< 100 nM
same,iPSC viability at IC20,[5],+ (cell viability is greater than 75% at the concentration of IC20)
"Oc1ccc(CN[C@@H]2CCCc3c2[nH]c2ccc(Br)cc32)cc1 [Compound 60, (R)-4-(((6-bromo-2,3,4,9-tetrahydro-1H-carbazol-1-yl)amino)methyl)phenol]",IC50,[1],≤ 100 nM
same,M2-8 Cell viability,M2-8 cells,+ (cell viability is greater than 50% at the concentration of 1000 nM)
same,IC20,mutant HTT [2],101 to 300 nM
same,IC20,wild-type HTT,> 1000 nM
same,LBC viability at IC20,[3],* (cell viability is greater than 60% at the concentration of IC20)
same,IC20,mutant HTT [4]; class symbols,< 100 nM
same,iPSC viability at IC20,[5],+ (cell viability is greater than 75% at the concentration of IC20)
CC(C)(O)c1ccc(CN[C@@H]2CCCc3c2[nH]c2ccc(Br)nc32)cc1 [Compound 63],IC50,[1],≤ 100 nM
same,M2-8 Cell viability,M2-8 cells,+ (cell viability is greater than 50% at the concentration of 1000 nM)
same,IC20,mutant HTT [2],< 100 nM
same,IC20,wild-type HTT,> 500 nM
same,LBC viability at IC20,[3],* (cell viability is greater than 60% at the concentration of IC20)
same,IC20,mutant HTT [4]; class symbols,< 100 nM
same,iPSC viability at IC20,[5],+ (cell viability is greater than 75% at the concentration of IC20)
OCc1ccc(CN[C@@H]2CCCc3c2[nH]c2ccc(Br)nc32)cc1 [Compound 65],IC50,[1],≤ 100 nM
same,M2-8 Cell viability,M2-8 cells,+ (cell viability is greater than 50% at the concentration of 1000 nM)
same,IC20,mutant HTT [2],301 to 1000 nM
same,IC20,wild-type HTT,> 1000 nM
same,LBC viability at IC20,[3],* (cell viability is greater than 60% at the concentration of IC20)
same,IC20,mutant HTT [4]; class symbols,< 100 nM
same,iPSC viability at IC20,[5],+ (cell viability is greater than 75% at the concentration of IC20)
CC(C)(O)c1ccc(CN[C@@H]2CCCc3c2[nH]c2ccc(Br)nc32)s1 [Compound 66],IC50,[1],≤ 100 nM
same,M2-8 Cell viability,M2-8 cells,+ (cell viability is greater than 50% at the concentration of 1000 nM)
same,IC20,mutant HTT [2],< 100 nM
same,IC20,wild-type HTT,> 1000 nM
same,LBC viability at IC20,[3],* (cell viability is greater than 60% at the concentration of IC20)
same,IC20,mutant HTT [4]; class symbols,< 100 nM
same,iPSC viability at IC20,[5],+ (cell viability is greater than 75% at the concentration of IC20)
